# The source made the active and inactive calls. The rule behind the calls is not given here.
# Legend:
# Candida albicans [1] = experiment: Antifungal activity against Candida albicans assessed as reduction in fungal growth incubated for 24 hrs by broth microdilution method; format: functional
# Candida albicans [2] = experiment: Antifungal activity against Candida albicans NR-29435 assessed as reduction in fungal growth incubated for 24 hrs by broth microdilution method; format: functional; conditions: NR-29435, 24 h
# Cryptococcus neoformans [3] = experiment: Antifungal activity against Cryptococcus neoformans NR-41294 assessed as reduction in fungal growth incubated for 24 hrs by broth microdilution method; format: functional; conditions: NR-41294, 24 h
# Candida albicans [4] = experiment: Antifungal activity against Candida albicans NR-29366 assessed as reduction in fungal growth incubated for 24 hrs by broth microdilution method; format: functional, organism-based
# Cryptococcus neoformans [5] = experiment: Antifungal activity against Cryptococcus neoformans NR-41298 assessed as reduction in fungal growth incubated for 24 hrs by broth microdilution method; format: functional; conditions: NR-41298, 24 h
# Candida albicans [6] = experiment: Antifungal activity against Candida albicans ATCC 10231 assessed as reduction in fungal growth incubated for 24 hrs by broth microdilution method; format: functional; conditions: ATCC 10231, 24 h
# Candida albicans [7] = experiment: Antifungal activity against Candida albicans NR-29446 assessed as reduction in fungal growth incubated for 24 hrs by broth microdilution method; format: functional; conditions: NR-29446, 24 h
# Candida albicans [8] = experiment: Antifungal activity against Candida albicans NR-29444 assessed as reduction in fungal growth incubated for 24 hrs by broth microdilution method; format: functional; conditions: NR-29444, 24 h
# Candida albicans [9] = experiment: Antifungal activity against Candida albicans NR-29434 assessed as reduction in fungal growth incubated for 24 hrs by broth microdilution method; format: functional; conditions: NR-29434, 24 h
# Candida albicans [10] = experiment: Antifungal activity against Candida albicans NR-29437 assessed as reduction in fungal growth incubated for 24 hrs by broth microdilution method; format: functional; conditions: NR-29437, 24 h
# Candida albicans [11] = experiment: Antifungal activity against Candida albicans NR-29439 assessed as reduction in fungal growth incubated for 24 hrs by broth microdilution method; format: functional; conditions: NR-29439, 24 h
# Candida albicans [12] = experiment: Antifungal activity against Candida albicans NR-29441 assessed as reduction in fungal growth incubated for 24 hrs by broth microdilution method; format: functional; conditions: NR-29441, 24 h
# Candida albicans [13] = experiment: Antifungal activity against Candida albicans NR-29438 assessed as reduction in fungal growth incubated for 24 hrs by broth microdilution method; format: functional; conditions: NR-29438, 24 h
# Cryptococcus neoformans [14] = experiment: Antifungal activity against Cryptococcus neoformans NR-41297 assessed as reduction in fungal growth incubated for 24 hrs by broth microdilution method; format: functional; conditions: NR-41297, 24 h
# Cryptococcus neoformans [15] = experiment: Antifungal activity against Cryptococcus neoformans NR-41291 assessed as reduction in fungal growth incubated for 24 hrs by broth microdilution method; format: functional; conditions: NR-41291, 24 h
# Cryptococcus neoformans [16] = experiment: Antifungal activity against Cryptococcus neoformans NR-41292 assessed as reduction in fungal growth incubated for 24 hrs by broth microdilution method; format: functional; conditions: NR-41292, 24 h
# Cryptococcus neoformans [17] = experiment: Antifungal activity against Cryptococcus neoformans NR-41295 assessed as reduction in fungal growth incubated for 24 hrs by broth microdilution method; format: functional; conditions: NR-41295, 24 h
# Candida albicans [18] = experiment: Antifungal activity against Candida albicans NR-29367 assessed as reduction in fungal growth incubated for 24 hrs by broth microdilution method; format: functional; conditions: NR-29367, 24 h
# Cryptococcus neoformans [19] = experiment: Antifungal activity against Cryptococcus neoformans NR-41296 assessed as reduction in fungal growth incubated for 24 hrs by broth microdilution method; format: functional; conditions: NR-41296, 24 h
# HCT-116 = experiment: Cytotoxicity against human HCT116 cells assessed as reduction in cell viability at 2 to 128 ug/ml incubated for 24 hrs by MTS assay; format: cell-based; conditions: hct-116, 24 h
# Cryptococcus neoformans [20] = experiment: Antifungal activity against Cryptococcus neoformans NR-41299 assessed as reduction in fungal growth incubated for 24 hrs by broth microdilution method; format: functional; conditions: NR-41299, 24 h
# Candida albicans [21] = experiment: Antifungal activity against Candida albicans NR-29448 assessed as reduction in fungal growth incubated for 24 hrs by broth microdilution method; format: functional; conditions: NR-29448, 24 h
# Candida albicans [22] = experiment: Antifungal activity against Candida albicans NR-29440 assessed as reduction in fungal growth incubated for 24 hrs by broth microdilution method; format: functional; conditions: NR-29440, 24 h
# Candida albicans [23] = experiment: Inhibition of biofilm formation in Candida albicans assessed as reduction in metabolic activity at 32 and 64 ug/ml incubated for 48 hrs by MTS assay; format: functional
# Candida albicans [24] = experiment: Antifungal activity against Candida albicans NR-29449 assessed as reduction in fungal growth incubated for 24 hrs by broth microdilution method; format: functional; conditions: NR-29449, 24 h
# Candida albicans [25] = experiment: Antifungal activity against Candida albicans assessed as reduction in hyphae formation and attachment at 32 to 64 ug/ml incubated for 12 hrs by crystal violet dye-based microscopic analysis; format: functional; set-up: scale not given: the % may be the effect or the level left
# Candida albicans [26] = experiment: Antifungal activity against Candida albicans NR-29442 assessed as reduction in fungal growth incubated for 24 hrs by broth microdilution method; format: functional; conditions: NR-29442, 24 h
# Candida albicans [27] = experiment: Antifungal activity against Candida albicans NR5-29453 assessed as reduction in fungal growth incubated for 24 hrs by broth microdilution method; format: functional; conditions: NR5-29453, 24 h
smiles,measurement,setting,value
O=C1Nc2ccccc2[C@@]12N[C@H](Cc1c[nH]cn1)[C@@H]([N+](=O)[O-])[C@@H]2c1cccc([N+](=O)[O-])c1,MIC,Candida albicans [1],16 mg/L
O=C1Nc2ccc(OC(F)(F)F)cc2[C@@]12N[C@H](Cc1c[nH]cn1)[C@@H]([N+](=O)[O-])[C@@H]2c1ccc(Br)cc1,MIC,Candida albicans [1],8 mg/L
O=C1Nc2ccc(OC(F)(F)F)cc2[C@@]12N[C@H](Cc1c[nH]cn1)[C@@H]([N+](=O)[O-])[C@@H]2c1ccc(Cl)cc1,MIC,Candida albicans [1],8 mg/L
Cc1ccc([C@H]2[C@H]([N+](=O)[O-])[C@@H](Cc3c[nH]cn3)N[C@]23C(=O)Nc2ccccc23)cc1,MIC,Candida albicans [1],64 mg/L
O=C1Nc2ccccc2[C@@]12N[C@H](Cc1c[nH]c3ccccc13)[C@@H]([N+](=O)[O-])[C@@H]2c1ccc(Cl)cc1,MIC,Candida albicans [1],16 mg/L
Cc1ccc([C@H]2[C@H]([N+](=O)[O-])[C@@H](Cc3c[nH]c4ccccc34)N[C@]23C(=O)Nc2ccc(OC(F)(F)F)cc23)cc1,MIC,Candida albicans [1],32 mg/L
COc1ccc([C@H]2[C@H]([N+](=O)[O-])[C@@H](Cc3c[nH]cn3)N[C@]23C(=O)Nc2ccc(OC(F)(F)F)cc23)cc1,MIC,Candida albicans [1],32 mg/L
COc1ccc([C@H]2[C@H]([N+](=O)[O-])[C@@H](Cc3c[nH]c4ccccc34)N[C@]23C(=O)Nc2ccccc23)cc1,MIC,Candida albicans [1],16 mg/L
O=C1Nc2ccc(OC(F)(F)F)cc2[C@@]12N[C@H](Cc1c[nH]cn1)[C@@H]([N+](=O)[O-])[C@@H]2c1ccccc1Cl,MIC,Candida albicans [2],8 mg/L
same,MIC,Cryptococcus neoformans [3],4 mg/L
same,inhibition,Candida albicans [4],Active
same,MIC,Cryptococcus neoformans [5],8 mg/L
same,MIC,Candida albicans [6],8 mg/L
same,MIC,Candida albicans [7],4 mg/L
same,MIC,Candida albicans [8],16 mg/L
same,MIC,Candida albicans [9],16 mg/L
same,MIC,Candida albicans [10],16 mg/L
same,MIC,Candida albicans [11],8 mg/L
same,MIC,Candida albicans [12],8 mg/L
same,MIC,Candida albicans [13],16 mg/L
same,MIC,Cryptococcus neoformans [14],16 mg/L
same,MIC,Cryptococcus neoformans [15],16 mg/L
same,MIC,Cryptococcus neoformans [16],16 mg/L
same,MIC,Cryptococcus neoformans [17],16 mg/L
same,MIC,Candida albicans [18],16 mg/L
same,MIC,Cryptococcus neoformans [19],16 mg/L
same,Activity,HCT-116,Non-Toxic
same,MIC,Cryptococcus neoformans [20],16 mg/L
same,MIC,Candida albicans [21],4 mg/L
same,MIC,Candida albicans [22],16 mg/L
same,inhibition (INH),Candida albicans [23],<=25%
same,MIC,Candida albicans [24],8 mg/L
same,Activity,Candida albicans [25],30 - 40%
same,MIC,Candida albicans [1],4 mg/L
same,MIC,Candida albicans [26],8 mg/L
same,MIC,Candida albicans [27],16 mg/L
O=C1Nc2ccccc2[C@@]12N[C@H](Cc1c[nH]cn1)[C@@H]([N+](=O)[O-])[C@@H]2c1ccc(Br)cc1,MIC,Candida albicans [1],16 mg/L
O=C1Nc2ccccc2[C@@]12N[C@H](Cc1c[nH]cn1)[C@@H]([N+](=O)[O-])[C@@H]2c1ccc(Cl)cc1,MIC,Candida albicans [1],8 mg/L
O=C1Nc2ccccc2[C@@]12N[C@H](Cc1c[nH]c3ccccc13)[C@@H]([N+](=O)[O-])[C@@H]2c1ccc(Br)cc1,MIC,Candida albicans [1],64 mg/L
O=C1Nc2ccccc2[C@@]12N[C@H](Cc1c[nH]cn1)[C@@H]([N+](=O)[O-])[C@@H]2c1ccccc1Cl,MIC,Candida albicans [1],8 mg/L
O=C1Nc2ccc(OC(F)(F)F)cc2[C@@]12N[C@H](Cc1c[nH]c3ccccc13)[C@@H]([N+](=O)[O-])[C@@H]2c1ccc(Cl)cc1,MIC,Candida albicans [1],16 mg/L
COc1ccc([C@H]2[C@H]([N+](=O)[O-])[C@@H](Cc3c[nH]cn3)N[C@]23C(=O)Nc2ccccc23)cc1,MIC,Candida albicans [1],32 mg/L
O=C1Nc2ccc(OC(F)(F)F)cc2[C@@]12N[C@H](Cc1c[nH]c3ccccc13)[C@@H]([N+](=O)[O-])[C@@H]2c1ccccc1Cl,MIC,Candida albicans [1],16 mg/L
O=C1Nc2ccc(OC(F)(F)F)cc2[C@@]12N[C@H](Cc1c[nH]c3ccccc13)[C@@H]([N+](=O)[O-])[C@@H]2c1cccc([N+](=O)[O-])c1,MIC,Candida albicans [1],16 mg/L
O=C1Nc2ccc(OC(F)(F)F)cc2[C@@]12N[C@H](Cc1c[nH]cn1)[C@@H]([N+](=O)[O-])[C@@H]2c1cccc([N+](=O)[O-])c1,MIC,Candida albicans [1],32 mg/L
Cc1ccc([C@H]2[C@H]([N+](=O)[O-])[C@@H](Cc3c[nH]c4ccccc34)N[C@]23C(=O)Nc2ccccc23)cc1,MIC,Candida albicans [1],128 mg/L
Cc1ccc([C@H]2[C@H]([N+](=O)[O-])[C@@H](Cc3c[nH]cn3)N[C@]23C(=O)Nc2ccc(OC(F)(F)F)cc23)cc1,MIC,Candida albicans [1],16 mg/L
O=C1Nc2ccc(OC(F)(F)F)cc2[C@@]12N[C@H](Cc1c[nH]c3ccccc13)[C@@H]([N+](=O)[O-])[C@@H]2c1ccc(Br)cc1,MIC,Candida albicans [1],8 mg/L
O=C1Nc2ccccc2[C@@]12N[C@H](Cc1c[nH]c3ccccc13)[C@@H]([N+](=O)[O-])[C@@H]2c1cccc([N+](=O)[O-])c1,MIC,Candida albicans [1],8 mg/L
O=C1Nc2ccccc2[C@@]12N[C@H](Cc1c[nH]c3ccccc13)[C@@H]([N+](=O)[O-])[C@@H]2c1ccccc1,MIC,Candida albicans [1],64 mg/L
COc1ccc([C@H]2[C@H]([N+](=O)[O-])[C@@H](Cc3c[nH]c4ccccc34)N[C@]23C(=O)Nc2ccc(OC(F)(F)F)cc23)cc1,MIC,Candida albicans [1],16 mg/L
O=C1Nc2ccc(OC(F)(F)F)cc2[C@@]12N[C@H](Cc1c[nH]cn1)[C@@H]([N+](=O)[O-])[C@@H]2c1ccccc1,MIC,Candida albicans [1],32 mg/L
O=C1Nc2ccccc2[C@@]12N[C@H](Cc1c[nH]c3ccccc13)[C@@H]([N+](=O)[O-])[C@@H]2c1ccccc1Cl,MIC,Candida albicans [1],32 mg/L
O=C1Nc2ccc(OC(F)(F)F)cc2[C@@]12N[C@H](Cc1c[nH]c3ccccc13)[C@@H]([N+](=O)[O-])[C@@H]2c1ccccc1,MIC,Candida albicans [1],8 mg/L
O=C1Nc2ccccc2[C@@]12N[C@H](Cc1c[nH]cn1)[C@@H]([N+](=O)[O-])[C@@H]2c1ccccc1,MIC,Candida albicans [1],16 mg/L

# Reference: ChEMBL document CHEMBL4385645, “Broad-spectrum antifungal activity of spirooxindolo-pyrrolidine tethered indole/imidazole hybrid heterocycles against fungal pathogens” (Bioorg Med Chem Lett, 2019)
